In patent publication US20090053138A1, “Stabilized Aptamers to Platelet Derived Growth Factor and their Use as Oncology Therapeutics” (priority 2002, published 2009):
Read-outs that look alike come from different tables or passages of the source. {PEG40k} = 40 kDa polyethylene glycol; [invdT] = inverted (3'-3') thymidine; [HEG] = hexaethylene glycol spacer

What was measured:
PDGF = experiment: PDGF-driven Elk Luciferase reporter gene assay; assay type: cell-based; conditions: PDGF 50 ng/ml, 3T3 cells
Procedure: 10,000 3T3 cells/well were plated in DMEM/10% FBS in a 96 well plate. They were transfected using FuGene (Roche, Indianapolis, Ind.) at 3:1 ratio with 5 ng of ELK-1 (Stratagene, La Jolla, Calif.) and 20 ng of pFR-Luciferase plasmids (Stratagene, La Jolla, Calif.). When PDGF is added at a final concentration of 50 ng/ml to 3T3 cells, an increase in the Luciferase signal can be observed which corresponds to the effect of the mitogen on the reporter gene. Steady Glo Luciferase assay (Promega, Madison, Wis.) was used to detect luciferase. […] (FIG. 17.)

[1] = mouse, in vivo, 10 mg/kg
Text: The pharmacokinetic (PK) data shown in FIG. 12A was subjected to non-compartmental analysis (NCA) using the industry-standard software package WinNonLin™ v.4.0 (Pharsight Corp., Mountain View, Calif.). […] The pharmacokinetic (PK) data shown in FIG. 12B was subjected to noncompartmental analysis (NCA) using the industry-standard software package WinNonLin™ v.4.0 (Pharsight Corp., Mountain View, Calif.).
The pharmacokinetic (PK) data shown in FIG. 12B was subjected to noncompartmental analysis (NCA) using the industry-standard software package WinNonLin™ v.4.0 (Pharsight Corp., Mountain View, Calif.).

With “5′-[40 K PEG]-(SEQ ID NO:1)-HEG-(SEQ ID NO:2)-HEG-(SEQ ID NO:3)-3′-dT-3′ (chain 1 CAGGCUACG; chain 2 CGTAGAGCAUCA; chain 3 TGATCCUG; piece 1: 2'-fluoro at 6, 8, 2'-O-methyl at 9, 5' {PEG40k}, 3' [HEG], other sugars and backbone not given here; piece 2: 2'-O-methyl at 5, 7, 12, 2'-fluoro at 10, 11, 3' [HEG], other sugars and backbone not given here; piece 3: 2'-fluoro at 5, 6, 7, 2'-O-methyl at 8, 3' [invdT], other sugars and backbone not given here) [ARC127]” as the substance, how does the IC50 (PDGF) read?
Its IC50 is at most 2 nM.

And the “concentration reducing the Luciferase signal to no mitogen levels” value (PDGF)?
The value was 3 nM.

What about the Cmax ([1]; ip) of the same substance?
The Cmax was 12.8 µM.

And the “Vz” value ([1]; ip)?
The value was 0.078 L/kg.

What about the “bioavailability, F” value ([1]; ip) of the same substance?
Its value is 0.625.

What about the “t1/2” value ([1]; ip) of the same substance?
Its value is 7.856 h.

What about the Cmax ([1]; iv) of the same substance?
Its Cmax is 29.7 µM.

And the “Vz” value ([1]; iv)?
The value was 0.053 L/kg.

What about the “bioavailability, F” value ([1]; iv) of the same substance?
The value was 1.000.

And the Cmax ([1]; sc)?
Its Cmax is 3.18 µM.

And the “Vz” value ([1]; sc)?
The value was 0.238 L/kg.

And the “bioavailability, F” value ([1]; sc)?
The value was 0.240.

And the “t1/2” value ([1]; sc)?
The value was 9.176 h.
